PubChem BioAssay AID256 (DTP/NCI, 2004)
Several values for one entry are separate records, joined by “and”; a condition that tells them apart may be missing. Equal entries are not always repeated. Toxic doses and inconclusive results are not listed.

System: CD2F1 mice, L1210 leukemia ip, survival T/C
Assay: NCI In Vivo Anticancer Drug Screen. Data for tumor model L1210 Leukemia (intraperitoneal) in CD2F1 (CDF1) mice
Conditions: higher = longer survival
Outline: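 Mice carrying a transplanted tumor received test compound or vehicle alone. The value is the measurement in the treated group divided by that in the vehicle-treated control group.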

[1] = endpoint: mean survival time, dose: 50.0 mg/kg/injection, schedule: Q01DX009 (ip), vehicle: saline with Tween-80
[2] = endpoint: mean survival time, dose: 200.0 mg/kg/injection, schedule: Q01DX009 (ip), vehicle: saline with Tween-80

## CCCCN(Cc1ccccc1)CC(O)C[NH-].O=C(O)CC(=O)O.[Pt+2] (configuration not stated)
endpoint: median survival time, dose: 10.0 mg/kg/injection, schedule: Q04DX003 (ip), vehicle: water
  T/C: 98 % of control
endpoint: median survival time, dose: 20.0 mg/kg/injection, schedule: Q04DX003 (ip), vehicle: water
  T/C: 105 % of control
endpoint: median survival time, dose: 27.25 mg/kg/injection, schedule: Q04DX003 (ip), vehicle: water
  T/C: 101 % of control
endpoint: median survival time, dose: 40.0 mg/kg/injection, schedule: Q04DX003 (ip), vehicle: water
  T/C: 109 % of control
endpoint: median survival time, dose: 54.5 mg/kg/injection, schedule: Q04DX003 (ip), vehicle: water
  T/C: 101 % of control
endpoint: median survival time, dose: 80.0 mg/kg/injection, schedule: Q04DX003 (ip), vehicle: water
  T/C: 105 % of control
endpoint: median survival time, dose: 109.0 mg/kg/injection, schedule: Q04DX003 (ip), vehicle: water
  T/C: 108 % of control

## O=C(Nc1ncnc2c1[nH]c(=O)n2C1OC(CO)C2OC21)c1ccccc1 (configuration not stated)
endpoint: mean survival time, dose: 12.5 mg/kg/injection, schedule: Q01DX005 (ip), vehicle: distilled water + Tween-80
  T/C: 92 % of control
endpoint: mean survival time, dose: 25.0 mg/kg/injection, schedule: Q01DX005 (ip), vehicle: distilled water + Tween-80
  T/C: 100 % of control
endpoint: mean survival time, dose: 50.0 mg/kg/injection, schedule: Q01DX005 (ip), vehicle: distilled water + Tween-80
  T/C: 95 % of control
endpoint: mean survival time, dose: 100.0 mg/kg/injection, schedule: Q01DX005 (ip), vehicle: distilled water + Tween-80
  T/C: 90 % of control
endpoint: mean survival time, dose: 200.0 mg/kg/injection, schedule: Q01DX005 (ip), vehicle: distilled water + Tween-80
  T/C: 93 % of control

## O=C(c1ccccn1)c1ccccn1
endpoint: mean survival time, dose: 100.0 mg/kg/injection, schedule: Q04DX003 (ip), vehicle: saline
  T/C: 96 % of control
endpoint: mean survival time, dose: 200.0 mg/kg/injection, schedule: Q04DX003 (ip), vehicle: saline
  T/C: 104 % of control
endpoint: mean survival time, dose: 400.0 mg/kg/injection, schedule: Q04DX003 (ip), vehicle: saline
  T/C: 102 % of control

## N[C@@H](C[C@H]1CCC(=O)[C@@H]2O[C@H]12)C(=O)O
endpoint: mean survival time, dose: 100.0 mg/kg/injection, schedule: Q04DX002 (ip), vehicle: saline
  T/C: 117 % of control and 107 % of control
endpoint: mean survival time, dose: 400.0 mg/kg/injection, schedule: Q04DX002 (ip), vehicle: saline
  T/C: 167 % of control
endpoint: median survival time, dose: 50.0 mg/kg/injection, schedule: Q01DX005 (ip), vehicle: saline
  T/C: 113 % of control and 110 % of control
endpoint: median survival time, dose: 100.0 mg/kg/injection, schedule: Q01DX005 (ip), vehicle: saline
  T/C: 122 % of control and 124 % of control
endpoint: median survival time, dose: 144.0 mg/kg/injection, schedule: Q01DX005 (ip), vehicle: saline
  T/C: 110 % of control
endpoint: median survival time, dose: 172.8 mg/kg/injection, schedule: Q01DX005 (ip), vehicle: saline
  T/C: 119 % of control
endpoint: median survival time, dose: 240.0 mg/kg/injection, schedule: Q01DX005 (ip), vehicle: saline
  T/C: 114 % of control
endpoint: median survival time, dose: 288.0 mg/kg/injection, schedule: Q01DX005 (ip), vehicle: saline
  T/C: 121 % of control
endpoint: median survival time, dose: 800.0 mg/kg/injection, schedule: Q01DX005 (ip), vehicle: saline
  T/C: 155 % of control

## CCN(CC)S(=O)(=O)c1ccccc1
endpoint: mean survival time, dose: 50.0 mg/kg/injection, schedule: Q01DX009 (ip), vehicle: Klucel (hydroxypropylcellulose) (HPC)
  T/C: 93 % of control
endpoint: mean survival time, dose: 100.0 mg/kg/injection, schedule: Q01DX009 (ip), vehicle: Klucel (hydroxypropylcellulose) (HPC)
  T/C: 104 % of control
endpoint: mean survival time, dose: 200.0 mg/kg/injection, schedule: Q01DX009 (ip), vehicle: Klucel (hydroxypropylcellulose) (HPC)
  T/C: 96 % of control

## CC1CN1C(=O)NCCCCCCNC(=O)N1CC1C (configuration not stated)
endpoint: mean survival time, dose: 0.31 mg/kg/injection, schedule: Q01DX009 (ip), vehicle: Klucel (hydroxypropylcellulose) (HPC)
  T/C: 89 % of control
endpoint: mean survival time, dose: 0.63 mg/kg/injection, schedule: Q01DX009 (ip), vehicle: Klucel (hydroxypropylcellulose) (HPC)
  T/C: 119 % of control and 101 % of control
endpoint: mean survival time, dose: 1.25 mg/kg/injection, schedule: Q01DX009 (ip), vehicle: Klucel (hydroxypropylcellulose) (HPC)
  T/C: 97 % of control
endpoint: mean survival time, dose: 2.5 mg/kg/injection, schedule: Q01DX001 (ip), vehicle: Klucel (hydroxypropylcellulose) (HPC)
  T/C: 98 % of control
endpoint: mean survival time, dose: 2.5 mg/kg/injection, schedule: Q01DX009 (ip), vehicle: Klucel (hydroxypropylcellulose) (HPC)
  T/C: 110 % of control
endpoint: mean survival time, dose: 5.0 mg/kg/injection, schedule: Q01DX001 (ip), vehicle: Klucel (hydroxypropylcellulose) (HPC)
  T/C: 94 % of control
endpoint: mean survival time, dose: 5.0 mg/kg/injection, schedule: Q01DX009 (ip), vehicle: Klucel (hydroxypropylcellulose) (HPC)
  T/C: 156 % of control
endpoint: mean survival time, dose: 10.0 mg/kg/injection, schedule: Q01DX001 (ip), vehicle: Klucel (hydroxypropylcellulose) (HPC)
  T/C: 100 % of control
endpoint: mean survival time, dose: 20.0 mg/kg/injection, schedule: Q01DX001 (ip), vehicle: Klucel (hydroxypropylcellulose) (HPC)
  T/C: 107 % of control

## N#CCCC(=O)c1nc(N)nc(N)n1
[1]
  T/C: 91 % of control
endpoint: mean survival time, dose: 100.0 mg/kg/injection, schedule: Q01DX009 (ip), vehicle: saline with Tween-80
  T/C: 91 % of control
[2]
  T/C: 91 % of control

## CN(C)N=Nc1c(F)cc(F)cc1F
endpoint: mean survival time, dose: 25.0 mg/kg/injection, schedule: Q01DX009 (ip), vehicle: saline with Tween-80
  T/C: 98 % of control
[1]
  T/C: 102 % of control
[2]
  T/C: 90 % of control
